Results taken from PubChem BioAssay (NCI).
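Growth conditions: 96-well plates. Treatment: test compound, 48 hours, 5 concentrations. Analysis: linear interpolation between bracketing concentrations; unreached endpoints set to highest concentration. The concentration for full growth arrest is given as TGI.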

Experiments:
Assay in all cases: DTP human tumour cell line panel, 48 h
[1] = test system: 786-0 renal
[2] = test system: A498 renal
[3] = test system: A549 NSCLC
[4] = test system: ACHN renal
[5] = test system: CAKI-1 renal
[6] = test system: CCRF-CEM leukemia
[7] = test system: COLO 205 colon
[8] = test system: DU-145 prostate
[9] = test system: EKVX NSCLC
[10] = test system: HCC-2998 colon
[11] = test system: HCT-116 colon
[12] = test system: HCT-15 colon
[13] = test system: HL-60(TB) leukemia
[14] = test system: HOP-62 NSCLC
[15] = test system: HOP-92 NSCLC
[16] = test system: HS 578T breast
[17] = test system: HT29 colon
[18] = test system: IGROV1 ovarian
[19] = test system: K-562 leukemia
[20] = test system: KM12 colon
[21] = test system: LOX IMVI melanoma
[22] = test system: M14 melanoma
[23] = test system: MALME-3M melanoma
[24] = test system: MCF7 breast
[25] = test system: MDA-MB-231 breast
[26] = test system: MDA-MB-435
[27] = test system: MDA-N
[28] = test system: MOLT-4 leukemia
[29] = test system: NCI-H226 lung
[30] = test system: NCI-H23 lung
[31] = test system: NCI-H460 lung
[32] = test system: NCI-H522 lung
[33] = test system: NCI/ADR-RES ovarian
[34] = test system: OVCAR-3 ovarian
[35] = test system: OVCAR-4 ovarian
[36] = test system: OVCAR-5 ovarian
[37] = test system: OVCAR-8 ovarian
[38] = test system: PC-3 prostate
[39] = test system: RPMI-8226 leukemia
[40] = test system: RXF 393 renal
[41] = test system: SF-268 CNS
[42] = test system: SF-295 CNS
[43] = test system: SF-539 CNS
[44] = test system: SK-MEL-2 melanoma
[45] = test system: SK-MEL-28 melanoma
[46] = test system: SK-MEL-5 melanoma
[47] = test system: SK-OV-3 ovarian
[48] = test system: SN12C renal
[49] = test system: SNB-19 CNS
[50] = test system: SNB-75 CNS
[51] = test system: SR leukemia
[52] = test system: SW-620 colon
[53] = test system: TK-10 renal
[54] = test system: U251 CNS
[55] = test system: UACC-257 melanoma
[56] = test system: UACC-62 melanoma
[57] = test system: UO-31 renal

CCCCCCCCCCCCCCCCC1=CC(=O)C=C(OC)C1=O
TGI [1]: > 100 µM
TGI [2]: > 100 µM
TGI [3]: > 100 µM
TGI [4]: > 100 µM
TGI [5]: > 100 µM
TGI [6]: > 100 µM
TGI [7]: > 100 µM
TGI [8]: > 100 µM
TGI [9]: > 100 µM
TGI [10]: > 100 µM
TGI [11]: > 100 µM
TGI [12]: > 100 µM
TGI [13]: > 100 µM
TGI [14]: > 100 µM
TGI [15]: > 100 µM
TGI [16]: > 100 µM
TGI [17]: > 100 µM
TGI [18]: > 100 µM
TGI [19]: > 100 µM
TGI [20]: > 100 µM
TGI [21]: > 100 µM
TGI [22]: > 100 µM
TGI [23]: > 100 µM
TGI [24]: > 100 µM
TGI [25]: > 100 µM
TGI [26]: > 100 µM
TGI [27]: > 100 µM
TGI [28]: > 100 µM
TGI [29]: > 100 µM
TGI [30]: > 100 µM
TGI [31]: > 100 µM
TGI [32]: > 100 µM
TGI [33]: > 100 µM
TGI [34]: > 100 µM
TGI [35]: > 100 µM
TGI [36]: > 100 µM
TGI [37]: > 100 µM
TGI [38]: > 100 µM
TGI [39]: > 100 µM
TGI [40]: > 100 µM
TGI [41]: > 100 µM
TGI [42]: > 100 µM
TGI [43]: > 100 µM
TGI [44]: > 100 µM
TGI [45]: > 100 µM
TGI [46]: > 100 µM
TGI [47]: > 100 µM
TGI [48]: > 100 µM
TGI [49]: > 100 µM
TGI [50]: > 100 µM
TGI [51]: 92.7 µM
TGI [52]: > 100 µM
TGI [53]: > 100 µM
TGI [54]: 93.8 µM
TGI [55]: > 100 µM
TGI [56]: > 100 µM
TGI [57]: > 100 µM
